The values below come from US10683295B2, “Chiral N-acyl-5,6,7(8-substituted)-tetrahydro-[1,2,4]triazolo[4,3-A]pyrazines as selective NK-3 receptor antagonists, pharmaceutical composition, methods for use in NK-3 receptor mediated disorders and chiral synthesis thereof” (Ogeda SA, priority 2011, dated 2020).

The assay has as its system luteinizing hormone (LH) plasma levels. The assay can be described thus: Castrated male rat model, circulating luteinizing hormone (LH). It is filed as in vivo. As to conditions: single intravenous 10 mg/kg dose, castrated male Sprague-Dawley rats, 1 hour after dosing.

From the text: Castrated Male Rat Model to Assess the Effect of Compound of Invention on Circulating Levels of Luteinizing Hormone (LH).
Thus, a castrated rat model is used to provide a broad index for measurement of LH inhibition as a marker of test compound inhibition of the GnRH signaling pathway.
Castrated adult male Sprague-Dawley (SD) rats (150-175 g) were purchased from Janvier (St Berthevin, France). […] The animals were allowed 2 weeks of postoperative recovery prior to study. Animals were handled on a daily basis. Standard diet and tap water were provided ad libitum. […] On the study day, animals were acclimated to the procedure room for a period of one hour prior to the initiation of the experiment.
Compounds of the invention were formulated as apyrogen water with 90 g/L (2-Hydroxypropyl)-β-CycloDextrin.
After basal sampling (TO) a single dose of compounds of the invention or vehicle was administrated intravenously to rats. Blood was then collected at 60 min post dosing. Blood samples were obtained via tail vein bleed, drawn into EDTA-containing tubes and centrifuged immediately. […] Serum LH levels were determined using radioimmunoassay kit from RIAZEN—Rat LH, Zentech (Liege, Belgium). Baseline was defined as the initial basal blood sample.

As for `Cc1nc(-c2nnc3n2CCN(C(=O)c2ccc(-c4cccs4)cc2)[C@@H]3C)cs1` [Compound 1, (R)-(8-methyl-3-(2-methylthiazol-4-yl)-5,6-dihydro-[1,2,4]triazolo[4,3-a]pyrazin-7(8H)-yl)(4-(thiophen-2-yl)phenyl) methanone], the “circulating LH levels” value was “significantly suppressed”. On to `Cc1csc(-c2nnc3n2CCN(C(=O)c2ccc(-c4cccs4)cc2)[C@@H]3C)n1` [Compound 19, (R)-(8-methyl-3-(4-methylthiazol-2-yl)-5,6-dihydro-[1,2,4]triazolo[4,3-a]pyrazin-7(8H)-yl)(4-(thiophen-2-yl)phenyl)methanone], for which the “circulating LH levels” value was “significantly suppressed”.
